Here are results for one molecule from article PMC8121762, “Peptidomics of enteroendocrine cells and characterisation of potential effects of a novel preprogastrin derived-peptide on glucose tolerance in lean mice” (Peptides, 2021).

Common to all, as to type: in vivo, mouse
In one assay the test system is mice. In words: Osmotic pump study 2: 7-day infusion, IP GTT. To be noted: osmotic pump 7 days, 2 g/kg IP GTT on day 7, n = 8/group, vs vehicle, T test. As for the experimental part: (§1) Three studies were performed to assess the in vivo efficacy of the ChgA 435−462a and Gast p59−79 (see Figure legends for specifics of each study). Peptides were administered by osmotic pumps implanted subcutaneously under isoflurane anaesthesia. Food intake was assessed using BioDaq (Research Diets) automated food intake cages. Intraperitoneal (IP) glucose tolerance tests (GTT) were performed by administering a 2 g/kg challenge of glucose and measuring blood glucose levels from the tail vein whereas oral GTT (OGTT) were performed using 1 g/kg glucose challenge. Insulin tolerance tests (ITT) were performed by administering a 0.75 U/kg dose of insulin IP to the mice and assessing blood glucose levels at 15, 30, 45, 60, 90 and 120 min post-insulin challenge.
Fig. 7 In vivo characterisation of novel peptides. (A-C) PK data of ChgA 435-462a, Gast p59-79, Sst 25-36. (D-G) Data from 1st osmotic pump study where n = 5/group. […] Body weights (E) and food intake (D) were measured throughout the study. Week 0 and day -7 represent baseline data prior to treatment onset. Glucose tolerance was assessed every 7 days after surgery via an IP GTT using a 2 g/kg glucose challenge. Results from IP GTT on day 28 shown in (F, G). Statistical analysis performed using Kruskal-Wallis test with post-hoc Dunn tests. (H, I) Results from osmotic pump study 2 where n = 8/group. […]

Assay [1] deals with diet-induced obese mice (DIO). The assay is described as follows: Osmotic pump study 3: IP GTT, OGTT and ITT in diet-induced obese mice. The conditions noted are these: vs vehicle. As for the experimental part: as §1
Fig. 7 In vivo characterisation of novel peptides. (A-C) PK data of ChgA 435-462a, Gast p59-79, Sst 25-36. (D-G) Data from 1st osmotic pump study where n = 5/group. […] Body weights (E) and food intake (D) were measured throughout the study. Week 0 and day -7 represent baseline data prior to treatment onset. Glucose tolerance was assessed every 7 days after surgery via an IP GTT using a 2 g/kg glucose challenge. Results from IP GTT on day 28 shown in (F, G). Statistical analysis performed using Kruskal-Wallis test with post-hoc Dunn tests. (H, I) Results from osmotic pump study 2 where n = 8/group. Mice singly housed and infused with either Gast p59-79 or vehicle for 7 days. 2 g/kg IP GTT performed on day 7 and results shown in H and I. Statistical analysis performed using T test. (J-P) Results from osmotic pump study 3 where n = 7/group. Mice singly housed and infused with either Gast p59-79 or vehicle for 7 days. 2 g/kg IP GTT performed on day 7 (J, K) and 1 g/kg OGTT performed on day 14 (L, M). 0.75 U/kg ITT performed on day 21 (N, O). Body weights vs AUC during ITT on day 21 (P). Error bars represent SD. *P < 0.05, **p < 0.01, ***p < 0.005.

Assay [2] has as its system phosphorylated-AKT (pAKT). The assay is described as follows: Post-mortem assessment of insulin sensitivity (pAKT / total-AKT, MSD kits). The conditions noted are these: DIO mice, 28 days after pump surgery, 15 min after 0.75 U/kg insulin challenge; treatment vs vehicle. As for the experimental part: At the end of the 3rd osmotic pump study, mice were given a 0.75 U/kg insulin challenge and culled after 15 min. The liver, white adipose tissue (WAT) and skeletal muscle were dissected out and snap frozen in liquid nitrogen and stored at −70 °C until analysis.
50−100 mg pieces of WAT, liver and skeletal muscle were homogenised in MSD (Rockville, MD, USA) lysis buffer with various protease inhibitors supplied by MSD and Qiagen metal bead. Homogenised tissue was allowed to rest at 4 °C for 2 h to allow protein solubilisation and then centrifuged (10 000 g, 10 min, 4 °C). Supernatants were aspirated and stored at -70 °C till analysis. Protein content of all homogenised tissue samples was assessed using a Pierce BCA protein assay kit (Thermo Fisher Scientific) according to the manufacturer’s instructions.
Tissue homogenates were diluted in MSD lysis buffer to the same protein content. Total and phosphorylated-AKT (pAKT) were quantified using respective kits from MSD (total-AKT kit catalogue number: K150MOD-1, pAKT (Ser473) kit catalogue number: K151CAD-1) according to the manufacturer’s instructions.
Fig. 8 Phosphorylated-AKT (pAKT) expressed as a percentage of total AKT in liver (A), skeletal muscle (B) and white adipose tissue (WAT) (C) 15 min after a 0.75 U/kg insulin challenge. (D) Body weights vs pAKT as a percentage of total-AKT. […]

“Also recorded” adds a separate entry of the source. Where a SMILES comes first, the peptide text is derived from it. [ ]: non-standard residue; d: D form. pGlu = O=C1CC[C@@H](C(=O)O)N1

With `CC[C@H](C)[C@H](NC(=O)[C@H](Cc1ccccc1)NC(=O)[C@H](Cc1c[nH]cn1)NC(=O)[C@H](CCC(N)=O)NC(=O)[C@@H]1CCCN1C(=O)CNC(=O)[C@H](CCC(N)=O)NC(=O)[C@@H]1CCCN1C(=O)CNC(=O)[C@H](CC(C)C)NC(=O)[C@@H]1CCC(=O)N1)C(=O)N[C@@H](C)C(=O)N[C@@H](CC(=O)O)C(=O)N[C@@H](CC(C)C)C(=O)N[C@@H](CO)C(=O)N[C@@H](CCCCN)C(=O)N[C@@H](CCCCN)C(=O)N[C@@H](CCC(N)=O)C(=O)N[C@@H](CCCNC(=N)N)C(=O)N1CCC[C@H]1C(=O)N[C@@H](CCCNC(=N)N)C(=O)O` [Gast p59−79] ([pGlu]LGPQGPQHFIADLSKKQRPR-OH; C-terminus assumed), the “glucose tolerance in IP GTT, second mouse cohort” value in the assay on mice was “modestly improves glucose tolerance”. The “AUC during ITT” value in assay [1] (0.75 U/kg ITT day 21, n = 7/group, significant effect of body weight on AUC (p = 0.009), two-way ANOVA) is reported as “also evident in the AUCs (p = 0.011)”. For the same molecule, in assay [1] (0.75 U/kg insulin IP on day 21, n = 7/group, confounded by body weight), the “blood glucose levels in ITT” value is “differed at 90 and 120 min post-insulin challenge; also recorded: appeared to slow glucose normalisation following an ITT”. The “glucose tolerance (IP GTT and OGTT) in DIO mice” value in assay [1] (osmotic pump, 2 g/kg IP GTT day 7, 1 g/kg OGTT day 14, n = 7/group, confounded by weight loss) is on record as “did not suggest that Gast p59−79 affected glucose tolerance”. In addition, the “percentage of pAKT (of total AKT) in liver, WAT and skeletal muscle” value in assay [2] is given as “No effect”.
